Results: patent US20240344062A1, “RIBOSOMAL RNA (rRNA) VARIANTS […] PROTEIN PRODUCTION CAPABILITIES” (THE BROAD INSTITUTE, INC., priority 2021, published 2024)

System: gIII under o-RBS variants
Test: Two-stage selection of o-RBS/o-antiRBS pairs (phage titers post infection)
Conditions: seven o-RBS variants with o-antiRBSlib SPs

In the case of “o-RBSH3: orthogonal ribosome binding site, SEQ ID NO: 7 (DNA UUUCCAAUAUACAGAUCUAUG; listed as RNA, chemistry not fully specified)”, the “propagation (phage titers) post infection” value is reported as “highest titers”.
